Results reported in patent US4359461A, “Mono-, di- and tri-adamantylcarbonyl- digalactopyranosyl- glucopyranosyl- fructofuranose sulfate salts” (American Cyanamid Company, priority 1981, dated 1982).
Where a name gives a salt, the structure may show the parent alone.

Assays:
activated human C1 = activated human C1 (Homo sapiens, UniProt P09871); assay: Test Code 026 (C1 inhibitor); assay type: biochemical; conditions: activity in wells, serial dilution assay; higher well number indicates higher activity
Source text: (§1) An active inhibitor protects C2 from C1 and C4; (ii) Test Code 035 (C3-C9 inhibitor)--This test determines the ability of the late components of human complement (C3-C9) to lyse EAC 142 in the presence of appropriate dilutions of the test compound. An active inhibitor protects EAC 142 from lysis by human C3-C9; (iii) Test Code 036 (C-Shunt inhibitor)--In this test human erythrocytes rendered fragile are lysed in autologous serum via the shunt pathway activated by cobra venom factor in the presence of appropriate dilutions of the test compound. Inhibition of the shunt pathway results in failure of lysis; (iv) Cap 50 Test--Here, appropriate amounts of the test compound are added to a pool of guinea pig serum in vitro, after which the complement level is determined in undiluted serum by the serum capillary tube assay of U.S. Pat. No. 3,876,376. The concentration of compound inhibiting 50% is reported; and (v) Guinea Pig Intraperitoneal Test (GPIP)--Guinea pigs weighing about 300 g are dosed intraperitoneally (i.p.) with 200 mg/kg of the test compound dissolved in saline and adjusted to pH 7-8. Approximately […], taken by orbital sinus puncture 30 minutes and one hour after injections, are collected directly into centrifuge tubes; 5 ml blood samples, taken by decapitation 2 hours after injection, are collected directly into diSPo® beakers. The samples were allowed to clot, centrifuged, and the resultant sera were assayed for complement activity using the capilllary complement assay. Percent inhibition is calculated by comparison with simultaneous controls. The results of the GPIP appear in Table I together with results of Test Code 026, 035, 036 and Cap 50.

[1] = system: late components of human complement (C3-C9); assay: Test Code 035 (C3-C9 inhibitor), lysis of EAC 142; assay type: biochemical; conditions: activity in wells, serial dilution assay; higher well number indicates higher activity
Source text: as §1

shunt pathway = assay: Test Code 036 (C-Shunt inhibitor), lysis of human erythrocytes in autologous serum via shunt pathway activated by cobra venom factor; assay type: biochemical; conditions: activity in wells, serial dilution assay; higher well number indicates higher activity
Source text: as §1

[2] = system: complement activity of sera; assay: Guinea Pig Intraperitoneal Test (GPIP); assay type: in vivo; conditions: 200 mg/kg i.p.
Source text: as §1

O=C(OC[C@H]1O[C@H](OC[C@H]2O[C@H](OC[C@H]3O[C@H](O[C@]4(COC(=O)C56CC7CC(CC(C7)C5)C6)O[C@H](COC(=O)C56CC7CC(CC(C7)C5)C6)[C@@H](OS(=O)(=O)O)[C@@H]4OS(=O)(=O)O)[C@H](OS(=O)(=O)O)[C@@H](OS(=O)(=O)O)[C@@H]3OS(=O)(=O)O)[C@H](OS(=O)(=O)O)[C@@H](OS(=O)(=O)O)[C@H]2OS(=O)(=O)O)[C@H](OS(=O)(=O)O)[C@@H](OS(=O)(=O)O)[C@H]1OS(=O)(=O)O)C12CC3CC(CC(C3)C1)C2 [1,6-Bis-O-(1-adamantylcarbonyl)-β-D-fructofuranosyl-6-O-1-adamantylcarbonyl-O-α-D-galactopyranosyl(1→6)-O-α-D-galactopyranosyl(1→6)-α-D-glucopyranoside, undecakis(H-sulfate), undecasodium salt]
C1 026 Wells (activated human C1): +6 Wells
C-Late 035 Wells [1]: +1 Wells
C-Shunt Inhibition 036 Wells (shunt pathway): +3 Wells
In Vivo Activity (Guinea pig) % Inhibition Intraperitoneal ([2]; 30 minutes): 11%
In Vivo Activity (Guinea pig) % Inhibition Intraperitoneal ([2]; 60 minutes): 12%
In Vivo Activity (Guinea pig) % Inhibition Intraperitoneal ([2]; 120 minutes): 72%

O=C(OC[C@H]1O[C@H](OC[C@H]2O[C@H](OC[C@H]3O[C@H](O[C@]4(COS(=O)(=O)O)O[C@H](COC(=O)C56CC7CC(CC(C7)C5)C6)[C@@H](OS(=O)(=O)O)[C@@H]4OS(=O)(=O)O)[C@H](OS(=O)(=O)O)[C@@H](OS(=O)(=O)O)[C@@H]3OS(=O)(=O)O)[C@H](OS(=O)(=O)O)[C@@H](OS(=O)(=O)O)[C@H]2OS(=O)(=O)O)[C@H](OS(=O)(=O)O)[C@@H](OS(=O)(=O)O)[C@H]1OS(=O)(=O)O)C12CC3CC(CC(C3)C1)C2 [6,6'"-Di-1-adamantanecarboxylate-O--α-D-galactopyranosyl(1→6] [6,6'"-Di-1-adamantanecarboxylate-O-α-D-galactopyranosyl(1→6)-O-α-D-galactopyranosyl(1→6)-O-α-D-glucopyranosyl-β-D-fructofuranose, dodecakis(H-sulfate), dodecasalt with trimethylamine]
C1 026 Wells (activated human C1): +9 Wells
C-Late 035 Wells [1]: +1 Wells
C-Shunt Inhibition 036 Wells (shunt pathway): +3 Wells

O=C(OC[C@H]1O[C@H](OC[C@H]2O[C@H](OC[C@H]3O[C@H](O[C@]4(COS(=O)(=O)O)O[C@H](COC(=O)C56CC7CC(CC(C7)C5)C6)[C@@H](OS(=O)(=O)O)[C@@H]4OS(=O)(=O)O)[C@H](OS(=O)(=O)O)[C@@H](OS(=O)(=O)O)[C@@H]3OS(=O)(=O)O)[C@H](OS(=O)(=O)O)[C@@H](OS(=O)(=O)O)[C@H]2OS(=O)(=O)O)[C@H](OS(=O)(=O)O)[C@@H](OS(=O)(=O)O)[C@H]1OS(=O)(=O)O)C12CC3CC(CC(C3)C1)C2 [6,6'"-Di-1-admantanecarboxylate-O--α-D-galactopyranosyl(1→6)] [6,6'"-Di-1-adamantanecarboxylate-O-α-D-galactopyranosyl(1→6)-O-α-D-galactopyranosyl(1→6)-O-α-D-glucopyranosyl-β-D-fructofuranose, dodecakis(H-sulfate), dodecasodium salt]
C-Shunt Inhibition 036 Wells (shunt pathway): +2 Wells
In Vivo Activity (Guinea pig) % Inhibition Intraperitoneal ([2]; 30 minutes): 72%
In Vivo Activity (Guinea pig) % Inhibition Intraperitoneal ([2]; 60 minutes): 92%
In Vivo Activity (Guinea pig) % Inhibition Intraperitoneal ([2]; 120 minutes): 97%

O=C(OC[C@H]1O[C@@](COS(=O)(=O)O)(O[C@H]2O[C@H](CO[C@H]3O[C@H](CO[C@H]4O[C@H](COS(=O)(=O)O)[C@H](OS(=O)(=O)O)[C@H](OS(=O)(=O)O)[C@H]4OS(=O)(=O)O)[C@H](OS(=O)(=O)O)[C@H](OS(=O)(=O)O)[C@H]3OS(=O)(=O)O)[C@@H](OS(=O)(=O)O)[C@H](OS(=O)(=O)O)[C@H]2OS(=O)(=O)O)[C@@H](OS(=O)(=O)O)[C@@H]1OS(=O)(=O)O)C12CC3CC(CC(C3)C1)C2 [6-O-(1-Adamantylcarbonyl)-β-D-fructofuranosyl-O-α-D-galactopyranosyl(1→6)-O-α-D-galactopyranosyl(1→6)-α-D-glucopyranoside, tridecakis(H-sulfate), tridecasalt with trimethylamine]
C-Shunt Inhibition 036 Wells (shunt pathway): +5 Wells

O=C(OC[C@H]1O[C@@](COS(=O)(=O)O)(O[C@H]2O[C@H](CO[C@H]3O[C@H](CO[C@H]4O[C@H](COS(=O)(=O)O)[C@H](OS(=O)(=O)O)[C@H](OS(=O)(=O)O)[C@H]4OS(=O)(=O)O)[C@H](OS(=O)(=O)O)[C@H](OS(=O)(=O)O)[C@H]3OS(=O)(=O)O)[C@@H](OS(=O)(=O)O)[C@H](OS(=O)(=O)O)[C@H]2OS(=O)(=O)O)[C@@H](OS(=O)(=O)O)[C@@H]1OS(=O)(=O)O)C12CC3CC(CC(C3)C1)C2 [6-O--(1-Adamantylcarbonyl)-β-D-fructofuranosyl-O--α-D-galact] [6-O-(1-Adamantylcarbonyl)-β-D-fructofuranosyl-O-α-D-galactopyranosyl(1→6)-O-α-D-galactopyranosyl(1→6)-α-D-glucopyranoside, tridecakis(H-sulfate), tridecasalt with trimethylamine]
C1 026 Wells (activated human C1): +10 Wells

O=C(OC[C@H]1O[C@@](COS(=O)(=O)O)(O[C@H]2O[C@H](CO[C@H]3O[C@H](CO[C@H]4O[C@H](COS(=O)(=O)O)[C@H](OS(=O)(=O)O)[C@H](OS(=O)(=O)O)[C@H]4OS(=O)(=O)O)[C@H](OS(=O)(=O)O)[C@H](OS(=O)(=O)O)[C@H]3OS(=O)(=O)O)[C@@H](OS(=O)(=O)O)[C@H](OS(=O)(=O)O)[C@H]2OS(=O)(=O)O)[C@@H](OS(=O)(=O)O)[C@@H]1OS(=O)(=O)O)C12CC3CC(CC(C3)C1)C2 [6-O--(1-Adamantylcarbonyl)-β-D-fructofuranosyl-O--α-D-galact] [6-O-(1-Adamantylcarbonyl)-β-D-fructofuranosyl-O-α-D-galactopyranosyl(1→6)-O-α-D-galactopyranosyl(1→6)-α-D-glucopyranoside, tridecakis(H-sulfate), tridecasodium salt]
C-Late 035 Wells [1]: +2 Wells
In Vivo Activity (Guinea pig) % Inhibition Intraperitoneal ([2]; 2 hours): 78%
In Vivo Activity (Guinea pig) % Inhibition Intraperitoneal ([2]; 6 hours): 71%
In Vivo Activity (Guinea pig) % Inhibition Intraperitoneal ([2]; 24 hours): 59%
